Like-named read-outs stand apart in the source and are kept apart here. Marks after values point to notes of the source that are not given here.
How the values were obtained:
[1] = tested on: DNBS-Induced Inflammatory Bowel Disease Models in Rats; test: Biological Example 4: DNBS-induced inflammatory bowel disease models in rats; type: in vivo, Wistar rats; settings: 30 mg/Kg i.g. qd × 7; for Adhesion Degree of Colon / Colon weight to length ratio / Ulcer area of colon / inhibition in vivo at 30 mg/kg: day 7; for Body weight: Mean ± SD; for inhibition in vivo at 30 mg/kg: Rattus norvegicus, po, 168 h
Protocol: 102 male Wistar rats were fasted for 72 hours. A 5% glucose injection was administered subcutaneously twice during fasting. 88 rats with normal conditions and moderate body weight were selected from the fasting rats. The animals were randomly divided into 11 groups according to the body weight (see Table 11. Grouped Table).
The animals were anesthetized with ether after 72 hours fasting. A specially made gavage device was slowly inserted into the enteric cavity at 8 cm from the anus. The model control group and each test group were administered with 0.5 mL of 50 mg/mL DNBS in 30% ethanol solution. The normal control group was administered with 0.5 mL of 30% ethanol solution. The animals were inverted in anesthesia for 15 minutes. The day when the model was prepared was day 0 of the experiment. After 4 hours of DNBS induction, the corresponding drug or the corresponding volume of 1% CMC-Na was administered once per day. On day 7 of the experiment, the animals were euthanized to score the colon adhesion degree, measure the length of colon and ulcer area, weigh colon and calculate the colon weight to length ratio.
One-way ANOVA analysis of the length of colon and colon weight per length of rats was performed by SPSS22. Statistical analyses between groups were performed. The adhesion degree was scored. Mann-Whitney U non-parametric test was performed on ulcer area. Statistical analyses between groups were performed.
Calculation Formula of Inhibitory rate of weight increase per length: (Colon weight to length ratio in model group−Colon weight to length ratio in administration group)/(Colon weight to length ratio in model group−Colon weight to length ratio in blank group)

[2] = tested on: mice; test: Biological Example 5: acute toxicity experiment of single oral administration in mice; type: in vivo; settings: single oral 1000 mg/Kg, Mean ± SD
Protocol: The mice were fasted one day before the experiment. On the day of the experiment, 6 mice (ICR mice, body weight of 19-21 g, three females and three males) were selected in each experiment group. First of all, one female and one male were selected to orally give 1000 mg/Kg, and observed for 5-10 minutes. If there were no obvious side effects, the remaining 4 animals were orally given the same dose, and observed for 10-15 minutes. If no animal died, the animals were placed in a box to balancedly feed for 7 days. The state was observed and the body weight was recorded daily.
Observation Indexes within 0-15 Minutes after Administration
Activity: restlessness, hyperactivity
Nervous system response: tremor, spasm, convulsion, ataxia, posture abnormality, etc.
Autonomic nerve: exophthalmos, salivation, tears, urination (hematuria), diarrhea, piloerection, breathing, etc.
State of Animal: lethargy, hyperactivity, excitement, hair loss, diarrhea, abnormal behavior, death, etc.

[3] = read-out: Inhibitory rate of colon adhesion
[4] = read-out: Inhibitory rate of ulcer area of colon
[5] = read-out: Inhibitory rate of weight increase per length

CNc1cccc2c1C(=O)N(C1CCC(=O)N(CCOC)C1=O)C2=O (centres unmarked) [Example 2, 4-methylamino-2-(1-(2-methoxyethyl)-2,6-dioxopiperidin-3-yl)isoindolin-1,3-dione]
Adhesion Degree of Colon [1]: 0.8 ± 0.9 point
Colon weight to length ratio [1]: 120 ± 25 mg/cm
Ulcer area of colon [1]: 1.0 ± 1.6 cm^2
Body weight ([1]; Day 1): 122.1 ± 4.6 g
Body weight ([1]; Day 2): 123.0 ± 8.4 g
Body weight ([1]; Day 3): 127.1 ± 11.3 g
Body weight ([1]; Day 4): 132.0 ± 12.4 g
Body weight ([1]; Day 5): 143.9 ± 11.9 g
Body weight ([1]; Day 6): 141.5 ± 11.5 g
Body weight ([1]; Day 7): 162.8 ± 15.8 g
inhibition in vivo at 30 mg/kg [1, 3]: 66.9%
inhibition in vivo at 30 mg/kg [1, 4]: 83.3%
inhibition in vivo at 30 mg/kg [1, 5]: 57.6%
Daily Body Weight ([2]; Female mice, Day 1): 19.2 ± 0.5 g
Daily Body Weight ([2]; Female mice, Day 2): 22.7 ± 0.6 g
Daily Body Weight ([2]; Female mice, Day 3): 23.2 ± 0.5 g
Daily Body Weight ([2]; Female mice, Day 4): 23.2 ± 0.5 g
Daily Body Weight ([2]; Female mice, Day 5): 24.4 ± 0.2 g
Daily Body Weight ([2]; Female mice, Day 6): 24.6 ± 1.1 g
Daily Body Weight ([2]; Female mice, Day 7): 24.5 ± 1.9 g
Daily Body Weight ([2]; Male mice, Day 1): 18.6 ± 0.5 g
Daily Body Weight ([2]; Male mice, Day 2): 24.1 ± 0.4 g
Daily Body Weight ([2]; Male mice, Day 3): 24.7 ± 0.2 g
Daily Body Weight ([2]; Male mice, Day 4): 24.7 ± 0.2 g
Daily Body Weight ([2]; Male mice, Day 5): 26.2 ± 0.6 g
Daily Body Weight ([2]; Male mice, Day 6): 28.8 ± 0.5 g
Daily Body Weight ([2]; Male mice, Day 7): 29.2 ± 0.8 g

COCCN1C(=O)CCC(N2C(=O)c3c(F)c(F)c(F)c(F)c3C2=O)C1=O (centres unmarked) [Example 5, 4,5,6,7-tetrafluoro-2-(1-(2-methoxyethyl)-2,6-dioxopiperidin-3-yl)isoindolin-1,3-dione]
Adhesion Degree of Colon [1]: 0.8 ± 0.5 point
Colon weight to length ratio [1]: 99 ± 14 mg/cm
Ulcer area of colon [1]: 0.2 ± 0.5 cm^2
Body weight ([1]; Day 1): 126.7 ± 8.9 g
Body weight ([1]; Day 2): 125.0 ± 11.0 g
Body weight ([1]; Day 3): 126.9 ± 14.0 g
Body weight ([1]; Day 4): 133.9 ± 13.3 g
Body weight ([1]; Day 5): 141.9 ± 14.9 g
Body weight ([1]; Day 6): 146.9 ± 13.9 g
Body weight ([1]; Day 7): 159.7 ± 14.3 g
inhibition in vivo at 30 mg/kg [1, 3]: 62.2%
inhibition in vivo at 30 mg/kg [1, 4]: 91.7%
inhibition in vivo at 30 mg/kg [1, 5]: 74.1%

COCCN1C(=O)CCC(N2C(=O)c3ccc(O)c(N)c3C2=O)C1=O (centres unmarked) [Example 8, 4-amino-5-hydroxy-2-(1-(2-methoxyethyl)-2,6-dioxopiperidin-3-yl)isoindolin-1,3-dione]
Adhesion Degree of Colon [1]: 0.9 ± 0.6 point
Colon weight to length ratio [1]: 106 ± 13 mg/cm
Ulcer area of colon [1]: 0.2 ± 0.4 cm^2
Body weight ([1]; Day 1): 128.6 ± 5.3 g
Body weight ([1]; Day 2): 128.2 ± 9.2 g
Body weight ([1]; Day 3): 131.6 ± 13.5 g
Body weight ([1]; Day 4): 136.8 ± 17.4 g
Body weight ([1]; Day 5): 149.1 ± 16.7 g
Body weight ([1]; Day 6): 149.7 ± 16.8 g
Body weight ([1]; Day 7): 164.1 ± 17.9 g
inhibition in vivo at 30 mg/kg [1, 3]: 52.7%
inhibition in vivo at 30 mg/kg [1, 4]: 91.7%
inhibition in vivo at 30 mg/kg [1, 5]: 65.9%
Daily Body Weight ([2]; Female mice, Day 1): 18.9 ± 0.9 g
Daily Body Weight ([2]; Female mice, Day 2): 22.9 ± 0.9 g
Daily Body Weight ([2]; Female mice, Day 3): 24.3 ± 0.7 g
Daily Body Weight ([2]; Female mice, Day 4): 24.3 ± 1.1 g
Daily Body Weight ([2]; Female mice, Day 5): 25.3 ± 1.4 g
Daily Body Weight ([2]; Female mice, Day 6): 25.8 ± 1.5 g
Daily Body Weight ([2]; Female mice, Day 7): 26.0 ± 2.5 g
Daily Body Weight ([2]; Male mice, Day 1): 18.0 ± 1.3 g
Daily Body Weight ([2]; Male mice, Day 2): 23.1 ± 0.9 g
Daily Body Weight ([2]; Male mice, Day 3): 24.6 ± 1.0 g
Daily Body Weight ([2]; Male mice, Day 4): 25.6 ± 1.7 g
Daily Body Weight ([2]; Male mice, Day 5): 27.2 ± 2.2 g
Daily Body Weight ([2]; Male mice, Day 6): 28.2 ± 2.2 g
Daily Body Weight ([2]; Male mice, Day 7): 29.2 ± 2.6 g

COCCN1C(=O)CCC(N2C(=O)c3c(N)ccc(O)c3C2=O)C1=O (centres unmarked) [Example 10, 4-amino-7-hydroxy-2-(1-(2-methoxyethyl)-2,6-dioxopiperidin-3-yl)isoindolin-1,3-dione]
Adhesion Degree of Colon [1]: 0.5 ± 0.5 point
Colon weight to length ratio [1]: 93 ± 12 mg/cm
Ulcer area of colon [1]: 0.2 ± 0.5# cm^2
Body weight ([1]; Day 1): 122.4 ± 6.7 g
Body weight ([1]; Day 2): 122.1 ± 8.0 g
Body weight ([1]; Day 3): 126.6 ± 9.8 g
Body weight ([1]; Day 4): 136.9 ± 12.5 g
Body weight ([1]; Day 5): 143.7 ± 18.2 g
Body weight ([1]; Day 6): 144.9 ± 19.7 g
Body weight ([1]; Day 7): 160.8 ± 25.7 g
inhibition in vivo at 30 mg/kg [1, 3]: 81.1%
inhibition in vivo at 30 mg/kg [1, 4]: 91.7%
inhibition in vivo at 30 mg/kg [1, 5]: 81.2%
Daily Body Weight ([2]; Female mice, Day 1): 19.2 ± 0.5 g
Daily Body Weight ([2]; Female mice, Day 2): 21.9 ± 0.4 g
Daily Body Weight ([2]; Female mice, Day 3): 22.4 ± 0.2 g
Daily Body Weight ([2]; Female mice, Day 4): 22.4 ± 0.2 g
Daily Body Weight ([2]; Female mice, Day 5): 22.9 ± 0.6 g
Daily Body Weight ([2]; Female mice, Day 6): 24.1 ± 1.5 g
Daily Body Weight ([2]; Female mice, Day 7): 24.2 ± 1.8 g
Daily Body Weight ([2]; Male mice, Day 1): 19.4 ± 0.3 g
Daily Body Weight ([2]; Male mice, Day 2): 24.4 ± 0.6 g
Daily Body Weight ([2]; Male mice, Day 3): 25.5 ± 0.9 g
Daily Body Weight ([2]; Male mice, Day 4): 25.5 ± 0.9 g
Daily Body Weight ([2]; Male mice, Day 5): 26.8 ± 0.9 g
Daily Body Weight ([2]; Male mice, Day 6): 29.2 ± 0.7 g
Daily Body Weight ([2]; Male mice, Day 7): 30.3 ± 0.7 g

C[S+]([O-])CCN1C(=O)CCC(N2C(=O)c3cccc(N)c3C2=O)C1=O (centres unmarked) [Example 12, 4-amino-2-(1-(2-methylsulfinylethyl)-2,6-dioxopiperidin-3-yl)isoindolin-1,3-dione]
Adhesion Degree of Colon [1]: 0.8 ± 0.7 point
Colon weight to length ratio [1]: 92 ± 16 mg/cm
Ulcer area of colon [1]: 0.4 ± 0.9 cm^2
Body weight ([1]; Day 1): 129.1 ± 5.1 g
Body weight ([1]; Day 2): 128.7 ± 6.6 g
Body weight ([1]; Day 3): 133.9 ± 9.8 g
Body weight ([1]; Day 4): 141.8 ± 12.0 g
Body weight ([1]; Day 5): 149.2 ± 11.0 g
Body weight ([1]; Day 6): 149.5 ± 11.2 g
Body weight ([1]; Day 7): 167.3 ± 11.3 g
inhibition in vivo at 30 mg/kg [1, 3]: 62.2%
inhibition in vivo at 30 mg/kg [1, 4]: 83.3%
inhibition in vivo at 30 mg/kg [1, 5]: 82.4%
Daily Body Weight ([2]; Female mice, Day 1): 18.7 ± 0.7 g
Daily Body Weight ([2]; Female mice, Day 2): 21.8 ± 0.6 g
Daily Body Weight ([2]; Female mice, Day 3): 22.6 ± 0.1 g
Daily Body Weight ([2]; Female mice, Day 4): 22.6 ± 0.0 g
Daily Body Weight ([2]; Female mice, Day 5): 23.7 ± 0.6 g
Daily Body Weight ([2]; Female mice, Day 6): 25.3 ± 1.0 g
Daily Body Weight ([2]; Female mice, Day 7): 25.7 ± 1.6 g
Daily Body Weight ([2]; Male mice, Day 1): 18.5 ± 0.2 g
Daily Body Weight ([2]; Male mice, Day 2): 24.3 ± 0.6 g
Daily Body Weight ([2]; Male mice, Day 3): 24.9 ± 0.1 g
Daily Body Weight ([2]; Male mice, Day 4): 24.9 ± 0.1 g
Daily Body Weight ([2]; Male mice, Day 5): 26.1 ± 0.7 g
Daily Body Weight ([2]; Male mice, Day 6): 27.8 ± 0.7 g
Daily Body Weight ([2]; Male mice, Day 7): 28.5 ± 0.7 g

COCCN1C(=O)CCC(F)(N2C(=O)c3cccc(N)c3C2=O)C1=O (centres unmarked) [Example 14, 4-amino-2-(1-(2-methoxyethyl)-3-fluoro-2,6-dioxopiperidin-3-yl)isoindolin-1,3-dione]
Adhesion Degree of Colon [1]: 0.8 ± 0.5 point
Colon weight to length ratio [1]: 102 ± 18 mg/cm
Ulcer area of colon [1]: 0.1 ± 0.4# cm^2
Body weight ([1]; Day 1): 126.2 ± 8.7 g
Body weight ([1]; Day 2): 125.1 ± 10.5 g
Body weight ([1]; Day 3): 129.5 ± 17.8 g
Body weight ([1]; Day 4): 136.5 ± 19.7 g
Body weight ([1]; Day 5): 146.4 ± 19.4 g
Body weight ([1]; Day 6): 147.6 ± 19.9 g
Body weight ([1]; Day 7): 165.7 ± 20.8 g
inhibition in vivo at 30 mg/kg [1, 3]: 62.2%
inhibition in vivo at 30 mg/kg [1, 4]: 95.8%
inhibition in vivo at 30 mg/kg [1, 5]: 70.6%
